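1) Cells in 96-well plates. 2) Compound, 48 h, 5 concentrations. 3) Linear interpolation between surrounding doses. 4) Unreached endpoint = highest concentration. GI50: concentration for 50% inhibition of growth.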 Active and inactive are the calls of the source. Cut-off read from the data, not from the text of the source: active = GI50 up to about 1.1 µM and inactive = higher.
Columns and labels:
Assay in all cases: NCI anticancer screen, dose series, 48 h
[1] = test system: ACHN
[2] = test system: BT-549
[3] = test system: CAKI-1
[4] = test system: HCT-116
[5] = test system: HT-29
[6] = test system: Hs-578T
[7] = test system: IGROV-1
[8] = test system: K562
[9] = test system: MOLT-4
[10] = test system: NCI-H226
[11] = test system: NCI-H522
[12] = test system: OVCAR-5
[13] = test system: OVCAR-8
[14] = test system: SF-295
[15] = test system: SK-MEL-2
[16] = test system: U-251
[17] = test system: UACC-257
[18] = test system: Malme-3M
[19] = test system: TK-10

| Compound | GI50 [1] | GI50 [2] | GI50 [3] | GI50 [4] | GI50 [5] | GI50 [6] | GI50 [7] | GI50 [8] | GI50 [9] | GI50 [10] | GI50 [11] | GI50 [12] | GI50 [13] | GI50 [14] | GI50 [15] | GI50 [16] | GI50 [17] | GI50 [18] | GI50 [19] |
| --- | --- | --- | --- | --- | --- | --- | --- | --- | --- | --- | --- | --- | --- | --- | --- | --- | --- | --- | --- |
| FC(F)(F)c1cc(Cl)cnc1N/N=C(/c1ccccc1)c1ccccn1 | 2.92 µM (inactive) | 6.93 µM (inactive) | 3.37 µM (inactive) | 3.16 µM (inactive) | 0.248 µM (active) | 0.422 µM (active) | 1.92 µM (inactive) | 2.16 µM (inactive) | 1.31 µM (inactive) | 1.57 µM (inactive) | 1.57 µM (inactive) | 2 µM (inactive) | 1.8 µM (inactive) | 2.16 µM (inactive) | 3.96 µM (inactive) | 3.62 µM (inactive) | 3.04 µM (inactive) | – | – |
| CN(C)c1ccc(/C=C/C=c2/c3ccccc3n3c2cc(-c2ccccc2)[n+]3C)cc1 | 0.218 µM (active) | 0.233 µM (active) | 0.251 µM (active) | 0.0386 µM (active) | 0.275 µM (active) | – | 0.238 µM (active) | 0.0512 µM (active) | 0.0881 µM (active) | 0.454 µM (active) | 0.0548 µM (active) | 0.478 µM (active) | 0.102 µM (active) | 0.288 µM (active) | 4.54 µM (inactive) | 0.0387 µM (active) | 0.182 µM (active) | 0.492 µM (active) | 0.564 µM (active) |
| CCOC(=O)[C@@H]1ON2O[C@@H](OC3CCCC3(c3ccccc3)c3ccccc3)C[C@H]3OC(=O)[C@@H]1C32 (some centres not stated) | 19.5 µM (inactive) | – | 17.2 µM (inactive) | 33.8 µM (inactive) | 15.2 µM (inactive) | 31.4 µM (inactive) | 33.8 µM (inactive) | – | 29.9 µM (inactive) | 56.6 µM (inactive) | 33.1 µM (inactive) | 20.9 µM (inactive) | 32.8 µM (inactive) | > 100 µM (inactive) | – | 56.4 µM (inactive) | 21.4 µM (inactive) | – | 21.1 µM (inactive) |
| CC(=O)Nc1ccc(Nc2cc(O)nc(O)n2)cc1 | > 100 µM (inactive) | > 100 µM (inactive) | – | > 100 µM (inactive) | > 100 µM (inactive) | > 100 µM (inactive) | > 100 µM (inactive) | > 100 µM (inactive) | 18.2 µM (inactive) | > 100 µM (inactive) | – | > 100 µM (inactive) | > 100 µM (inactive) | > 100 µM (inactive) | – | > 100 µM (inactive) | > 100 µM (inactive) | > 100 µM (inactive) | > 100 µM (inactive) |
| CC(C)(C)c1ccc(OCCOCCOc2ccc(C(C)(C)C)cc2S(=O)(=O)Nc2ccc([N+](=O)[O-])cc2)c(S(=O)(=O)Nc2ccc([N+](=O)[O-])cc2)c1 | 7.13 µM (inactive) | – | 9.31 µM (inactive) | 4.86 µM (inactive) | 7.38 µM (inactive) | – | 12.7 µM (inactive) | 6.21 µM (inactive) | 3.01 µM (inactive) | 47.8 µM (inactive) | – | > 100 µM (inactive) | 9.95 µM (inactive) | 8.47 µM (inactive) | 8.07 µM (inactive) | 7.28 µM (inactive) | 42.1 µM (inactive) | 83.9 µM (inactive) | 5.64 µM (inactive) |
| CN1CCC(O)(C(C)(C)C)CC1 | > 100 µM (inactive) | > 100 µM (inactive) | > 100 µM (inactive) | > 100 µM (inactive) | > 100 µM (inactive) | > 100 µM (inactive) | > 100 µM (inactive) | > 100 µM (inactive) | > 100 µM (inactive) | > 100 µM (inactive) | – | > 100 µM (inactive) | > 100 µM (inactive) | > 100 µM (inactive) | > 100 µM (inactive) | > 100 µM (inactive) | > 100 µM (inactive) | > 100 µM (inactive) | > 100 µM (inactive) |
| O=C1CC(O)c2c(Cl)sc(Cl)c21 (configuration not stated) | 12.2 µM (inactive) | 16 µM (inactive) | 3.3 µM (inactive) | 3.83 µM (inactive) | 2.88 µM (inactive) | – | 8.13 µM (inactive) | 3.37 µM (inactive) | 2.81 µM (inactive) | 15.1 µM (inactive) | – | 17 µM (inactive) | 4.07 µM (inactive) | 23.2 µM (inactive) | 13.5 µM (inactive) | 13.9 µM (inactive) | 9.98 µM (inactive) | – | 15.9 µM (inactive) |
| CC(C)OC(=O)NNc1cccc(Cl)c1 | > 100 µM (inactive) | – | 61.7 µM (inactive) | > 100 µM (inactive) | > 100 µM (inactive) | > 100 µM (inactive) | – | 47.3 µM (inactive) | > 100 µM (inactive) | > 100 µM (inactive) | – | > 100 µM (inactive) | > 100 µM (inactive) | > 100 µM (inactive) | 19.4 µM (inactive) | > 100 µM (inactive) | > 100 µM (inactive) | > 100 µM (inactive) | > 100 µM (inactive) |
